How the values were obtained:
[1] = Solubility in water and methanol
CO-treated RBCs = experiment: Time-course CO removal from CO-treated RBCs (absorbance at 420 nm); assay type: cell-based, bovine; conditions: quiescent suspension of CO-poisoned RBCs in buffered dithionite solution, 1 equiv of 6 (reduced in situ to 7)
Description: Time-Course CO Removal From CO-Treated RBCs Defibrinated bovine blood (Hemostat Laboratories) was diluted with PBS containing 5.7 mM sodium dithionite. CO was bubbled through this suspension for 5 s. This mixture was centrifuged for 30 s at 760×g. The supernatant was discarded, and the pellet was washed with PBS containing 5.7 mM sodium dithionite. This washing was repeated three more times to remove excess CO. An aliquot of the stock suspension of CO-treated RBCs was added to a quartz cuvette containing 1 mL of DI water to lyse the cells. The concentration of COHb was assessed by measuring the absorbance at 420 nm (ε=10^5.63) of this lysate. For time-course CO removal, an aliquot of the stock suspension of CO-treated RBCs was diluted to 1 mL with PBS containing 5.7 mM sodium dithionite. A full equivalent of compound 6 (which is reduced in situ to 7) was added, the suspension was rapidly mixed, and absorbance at 420 nm was monitored continuously (FIG. 12).

Compound | solubility in water and methanol [1] | time to essentially complete reaction (decrease of COHb absorbance at 420 nm) (CO-treated RBCs)
5,10,15,20-tetrakis(2,6-di(3,5-difluoro)phenyl-4-(trimethylsilyl) phenyl) porphyrin [Compound 2-2b] | completely insoluble | –
C[Si](C)(C)c1cc(-c2ccccc2)c(-c2c3nc(c(-c4c(-c5ccccc5)cc([Si](C)(C)C)cc4-c4ccccc4)c4ccc([nH]4)c(-c4c(-c5ccccc5)cc([Si](C)(C)C)cc4-c4ccccc4)c4nc(c(-c5c(-c6ccccc6)cc([Si](C)(C)C)cc5-c5ccccc5)c5ccc2[nH]5)C=C4)C=C3)c(-c2ccccc2)c1 [Compound 2-2a, 5,10,15,20-tetrakis(2,6-diphenyl-4-(trimethylsilyl)phenyl) porphyrin] | completely insoluble | –
O=S(=O)([O-])c1cc(-c2ccccc2)c(-c2c3nc(c(-c4c(-c5ccccc5)cc(S(=O)(=O)[O-])cc4-c4ccccc4)c4ccc([nH]4)c(-c4c(-c5ccccc5)cc(S(=O)(=O)[O-])cc4-c4ccccc4)c4nc(c(-c5c(-c6ccccc6)cc(S(=O)(=O)[O-])cc5-c5ccccc5)c5ccc2[nH]5)C=C4)C=C3)c(-c2ccccc2)c1.[Na+].[Na+].[Na+].[Na+] [Compound 2-3a, sodium 5,10,15,20-tetrakis(2,6-diphenyl-4-(sulfonato)phenyl)porphyrin] | readily dissolved | –
O=S(=O)([O-])c1cc(-c2cc(F)cc(F)c2)c(-c2c3nc(c(-c4c(-c5cc(F)cc(F)c5)cc(S(=O)(=O)[O-])cc4-c4cc(F)cc(F)c4)c4ccc([nH]4)c(-c4c(-c5cc(F)cc(F)c5)cc(S(=O)(=O)[O-])cc4-c4cc(F)cc(F)c4)c4nc(c(-c5c(-c6cc(F)cc(F)c6)cc(S(=O)(=O)[O-])cc5-c5cc(F)cc(F)c5)c5ccc2[nH]5)C=C4)C=C3)c(-c2cc(F)cc(F)c2)c1.[Na+].[Na+].[Na+].[Na+] [Compound 2-3b, sodium 5,10,15,20-tetrakis(2,6-di(3,5-difluoro)phenyl-4-(sulfonato)phenyl)porphyrin] | readily dissolved | –
Sodium 5,10,15,20-tetrakis(2,6-diphenyl-4-(sulfonate)phenyl)porphyrinatohydroxoiron(III) [Compound 6] | – | ≤ 3 min

— patent US20240366629A1, “Porphyrin Complexes as Antidotes for Carbon Monoxide Exposure and Methods of Use for Same” (priority 2021, published 2024)
